One may read the IC50 as the point on the concentration scale where inhibition reaches its midpoint. Read a high IC50 as a need for much substance.

Results on 21 compounds are retold here after patent publication US8669249B2, “Poly (ADP-ribose) polymerase (PARP) inhibitors” (Takeda Pharmaceutical Company Limited, priority 2009, dated 2014).

Some results are limits rather than exact numbers.

Experiment [1] addresses T1, catalytic domain of Human PARP (Homo sapiens, UniProt P09874).
T1 construct: The catalytic domain of Human PARP was cloned and prepared; made in house
Kind of experiment: Biacore surface plasmon resonance affinity assay. It is filed as binding. Conditions: pKD=-log10 KD, KD in mol/L; Biacore T100, 25° C.; read-out: pKD (converted). Put shortly:
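Human PARP catalytic domain amine-coupled to CM5 chip; compounds run as 2-fold series in HBS-P with 1% DMSO, 0.5 mM TCEP, 5 mM MgCl2.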
On the technique in general: Surface plasmon resonance follows binding to a sensor surface in real time, without labels.

The next experiment deals with T2, PARP (Homo sapiens, UniProt P09874).
T2 construct: purchased Trevigen 4684-096-K HT (kit); 4684-096-01 (PARP enzyme)
T2 sequence (P09874 whole entry): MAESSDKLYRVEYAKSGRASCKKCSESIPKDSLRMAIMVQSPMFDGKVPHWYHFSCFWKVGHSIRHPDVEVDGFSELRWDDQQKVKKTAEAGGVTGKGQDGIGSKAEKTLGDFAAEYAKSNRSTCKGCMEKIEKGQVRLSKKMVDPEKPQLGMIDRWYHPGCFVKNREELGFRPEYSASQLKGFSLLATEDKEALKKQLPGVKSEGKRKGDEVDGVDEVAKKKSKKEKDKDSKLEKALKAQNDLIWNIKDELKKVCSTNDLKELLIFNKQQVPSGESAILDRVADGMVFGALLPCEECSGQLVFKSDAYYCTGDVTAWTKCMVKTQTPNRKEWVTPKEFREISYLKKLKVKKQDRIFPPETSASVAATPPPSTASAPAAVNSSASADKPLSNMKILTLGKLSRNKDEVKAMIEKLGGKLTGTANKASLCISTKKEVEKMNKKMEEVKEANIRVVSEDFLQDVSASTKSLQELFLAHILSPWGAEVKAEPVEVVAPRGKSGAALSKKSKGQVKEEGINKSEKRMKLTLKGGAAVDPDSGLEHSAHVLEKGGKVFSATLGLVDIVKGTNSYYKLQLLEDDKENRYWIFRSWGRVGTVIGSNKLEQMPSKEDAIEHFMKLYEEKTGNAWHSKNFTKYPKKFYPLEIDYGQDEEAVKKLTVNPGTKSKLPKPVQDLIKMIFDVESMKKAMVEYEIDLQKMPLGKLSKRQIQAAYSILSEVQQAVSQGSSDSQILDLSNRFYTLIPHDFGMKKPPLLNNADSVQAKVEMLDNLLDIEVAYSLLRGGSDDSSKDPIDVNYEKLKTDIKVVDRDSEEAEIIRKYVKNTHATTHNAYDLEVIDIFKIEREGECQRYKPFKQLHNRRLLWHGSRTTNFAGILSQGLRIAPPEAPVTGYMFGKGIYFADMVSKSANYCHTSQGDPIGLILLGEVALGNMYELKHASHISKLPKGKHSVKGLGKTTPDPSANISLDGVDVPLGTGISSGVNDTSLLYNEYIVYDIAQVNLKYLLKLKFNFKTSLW
Put plainly: PARP ELISA (ELISA-based colorimetric PARP/Apoptosis Assay kit, Trevigen). It is filed as biochemical. Conditions: pIC50=-log10 IC50, IC50 in mol/L; inhibition of PARP catalytic activity. Put shortly: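 Quenched after 10 min catalysis by aspiration and four PBS/0.1% Triton X-100 washes. Poly(ADP-ribose) detected with mouse anti-PAR monoclonal antibody, goat anti-mouse IgG-HRP and HRP substrate; colorimetric signal proportional to PARP catalytic activity.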

For the next experiment, the system named is Jurkat cell line. Put plainly: PARP cellular chemopotentiation assay (MTS, with/without TMZ). Conditions: Chemopotentiation factor: ratio of EC50 values of Jurkat cells co-treated without and with 100 μM TMZ; 96 hours. It is filed as cell-based. Put shortly: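 Jurkat cells, 10,000/well, pre-cultured 24 h, then treated 96 h with serial compound dilutions (0.5% DMSO) with or without 100 μM TMZ. Viability by MTS conversion (OD490), normalized to DMSO controls; EC50 from curve fits, PF50 = EC50 without TMZ / EC50 with TMZ.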

T1 sequence (P09874 788-1014 limits assumed): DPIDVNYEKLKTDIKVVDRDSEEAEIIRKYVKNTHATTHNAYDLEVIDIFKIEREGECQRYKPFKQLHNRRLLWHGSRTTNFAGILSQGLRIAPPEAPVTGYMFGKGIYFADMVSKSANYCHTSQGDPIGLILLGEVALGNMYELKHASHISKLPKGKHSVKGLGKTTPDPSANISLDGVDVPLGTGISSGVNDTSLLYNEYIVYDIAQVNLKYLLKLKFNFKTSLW

As to `COC(=O)c1ccc(N2CCN(Cc3ccc4c(c3)NC(=O)C(C)O4)CC2)cc1` (stereo not drawn) [Compound 220, Methyl 4-(4-((2-methyl-3-oxo-3,4-dihydro-2H-benzo[b][1,4]oxazin-6-yl)methyl)piperazin-1-yl)benzoate], the Kd in experiment [1] was at most 10 nM. At PARP, this compound had an IC50 of 39.8 to 100 nM. Besides, in the experiment with Jurkat cell line, the PF50 is recorded as 1.0-1.9.

On to `CCNC(=O)c1ccc(N2CCN(Cc3cc4c(c(OC)c3)OC(C)C(=O)N4)CC2)cc1` (stereo not drawn) [Compound 162, N-Ethyl-4-(4-((8-methoxy-2-methyl-3-oxo-3,4-dihydro-2H-benzo[b][1,4]oxazin-6-yl)methyl)piperazin-1-yl)benzamide], for which the Kd in experiment [1] was below 31.6 nM. Also, the IC50 at PARP is at most 31.6 nM. For the same compound, the PF50 with Jurkat cell line is 2.0-9.9.

As to `CNC(=O)c1ccc(N2CCN(Cc3cc(C)c4c(c3)NC(=O)C(C)O4)CC2)cc1` (stereo not drawn) [Compound 257, 4-(4-((2,8-Dimethyl-3-oxo-3,4-dihydro-2H-benzo[b][1,4]oxazin-6-yl)methyl)piperazin-1-yl)-N-methylbenzamide], the Kd in experiment [1] is at most 10 nM. This compound gave a concentration for half-maximal inhibition (IC50) against PARP of at most 31.6 nM. In addition, in the experiment with Jurkat cell line, the PF50 was 2.0-9.9.

For `COc1cc(CN2CCN(c3ccccc3)CC2)cc2c1OC(C)C(=O)N2` (stereo not drawn) [Compound 156, 8-Methoxy-2-methyl-6-((4-phenylpiperazin-1-yl)methyl)-2H-benzo[b][1,4]oxazin-3(4H)-one], in experiment [1], the Kd was at most 10 nM. In addition, the IC50 against PARP was at least 126 nM. Further, the PF50 in the experiment with Jurkat cell line was 1.0-1.9.

Regarding `CCOC(=O)c1ccc(N2CCN(Cc3cc(C)c4c(c3)NC(=O)C(C)O4)CC2)cc1` (stereo not drawn) [Compound 255, Ethyl 4-(4-((2,8-dimethyl-3-oxo-3,4-dihydro-2H-benzo[b][1,4]oxazin-6-yl)methyl)piperazin-1-yl)benzoate], the Kd in experiment [1] is 12.6 to 100 nM. This compound had an IC50 against PARP of 39.8 to 100 nM. Further, the PF50 entry with Jurkat cell line is given as “≦0.9”.

With `CCNC(=O)c1ccc(N2CCN(Cc3cc(F)c4c(c3)NC(=O)C(C)O4)CC2)cc1` (stereo not drawn) [Compound 272, N-Ethyl-4-(4-((8-fluoro-2-methyl-3-oxo-3,4-dihydro-2H-benzo[b][1,4]oxazin-6-yl)methyl)piperazin-1-yl)benzamide], the Kd in experiment [1] was below 31.6 nM. In addition, the IC50 against PARP is 39.8 to 100 nM. For the same compound, the PF50 with Jurkat cell line is listed as 1.0-1.9.

`CC(C)NC(=O)c1ccc(N2CCN(Cc3ccc4c(c3)NC(=O)C(C)O4)CC2)cc1` (stereo not drawn) [Compound 225, N-Isopropyl-4-(4-((2-methyl-3-oxo-3,4-dihydro-2H-benzo[b][1,4]oxazin-6-yl)methyl)piperazin-1-yl)benzamide]: in experiment [1], the Kd was at most 10 nM. At PARP, this compound showed an IC50 of at most 31.6 nM. Moreover, in the experiment with Jurkat cell line, the PF50 result is on record as “≦0.9”.

With `CC1Oc2ccc(CN3CCN(c4ccc(C#N)cc4)CC3)cc2NC1=O` (stereo not drawn) [Compound 219, 4-(4-((2-methyl-3-oxo-3,4-dihydro-2H-benzo[b][1,4]oxazin-6-yl)methyl)piperazin-1-yl)benzonitrile], the Kd in experiment [1] is at most 10 nM. In addition, the IC50 against PARP is at most 31.6 nM. In the experiment on Jurkat cell line, the PF50 entry is “≦0.9”.

With `CCNC(=O)c1ccc(N2CCN(Cc3ccc4c(c3)NC(=O)C(C)O4)CC2)nc1` (stereo not drawn) [Compound 236, N-Ethyl-6-(4-((2-methyl-3-oxo-3,4-dihydro-2H-benzo[b][1,4]oxazin-6-yl)methyl)piperazin-1-yl)nicotinamide], the Kd in experiment [1] was at most 10 nM. Moreover, the IC50 against PARP is at most 31.6 nM. The PF50 entry in the experiment with Jurkat cell line was “≦0.9”.

As to `Cc1cc(CN2CCN(c3ccc(C(=O)NC4CC4)cc3)CC2)cc2c1OC(C)C(=O)N2` (stereo not drawn) [Compound 259, N-Cyclopropyl-4-(4-((2,8-dimethyl-3-oxo-3,4-dihydro-2H-benzo[b][1,4]oxazin-6-yl)methyl)piperazin-1-yl)benzamide], the Kd in experiment [1] was at most 10 nM. The compound further showed an IC50 against PARP of at most 31.6 nM. Further, the PF50 result with Jurkat cell line is recorded as “≧10.0”.

Regarding `CCOC(=O)c1ccc(N2CCN(Cc3ccc4c(c3)NC(=O)C(C)O4)CC2)cc1` (stereo not drawn) [Compound 217, Ethyl 4-(4-((2-methyl-3-oxo-3,4-dihydro-2H-benzo[b][1,4]oxazin-6-yl)methyl)piperazin-1-yl)benzoate], the Kd in experiment [1] was at most 10 nM. Further, the IC50 at PARP is at least 126 nM. In addition, in the experiment with Jurkat cell line, the PF50 entry is listed as “≦0.9”.

As to `CC(C)NC(=O)c1ccc(N2CCN(Cc3ccc4c(c3)NC(=O)C(C)O4)CC2)nc1` (stereo not drawn) [Compound 238, N-Isopropyl-6-(4-((2-methyl-3-oxo-3,4-dihydro-2H-benzo[b][1,4]oxazin-6-yl)methyl)piperazin-1-yl)nicotinamide], in experiment [1], the Kd was 12.6 to 100 nM. On PARP, the IC50 was 39.8 to 100 nM. The PF50 in the experiment with Jurkat cell line is listed as 1.0-1.9.

With `CCNC(=O)c1ccc(N2CCN(Cc3cc(C)c4c(c3)NC(=O)C(C)O4)CC2)nc1` (stereo not drawn) [Compound 261, 6-(4-((2,8-Dimethyl-3-oxo-3,4-dihydro-2H-benzo[b][1,4]oxazin-6-yl)methyl)piperazin-1-yl)-N-ethylnicotinamide], the Kd in experiment [1] is at most 10 nM. On PARP, this compound gave an IC50 of 39.8 to 100 nM. Also, the PF50 in the experiment with Jurkat cell line is 2.0-9.9.

On to `CC1Oc2ccc(CN3Cc4ccc(NC(=O)C5CC5)cc4C3)cc2NC1=O` (stereo not drawn) [Compound 243, N-(2-((2-Methyl-3-oxo-3,4-dihydro-2H-benzo[b][1,4]oxazin-6-yl)methyl)isoindolin-5-yl)cyclopropanecarboxamide], for which the Kd in experiment [1] is 1260 to 10000 nM. The same compound showed an IC50 against PARP of at least 126 nM. Besides, the PF50 result in the experiment with Jurkat cell line was “≦0.9”.

On to `CC1Oc2ccc(CN3CCN(c4ccc(C(F)(F)F)cc4)CC3)cc2NC1=O` (stereo not drawn) [Compound 222, 2-Methyl-6-((4-(4-(trifluoromethyl)phenyl)piperazin-1-yl)methyl)-2H-benzo[b][1,4]oxazin-3(4H)-one], for which, in experiment [1], the Kd was 12.6 to 100 nM. The same compound showed an IC50 at PARP of at least 126 nM. For the same compound, in the experiment on Jurkat cell line, the PF50 was 1.0-1.9.

Regarding `CC1Oc2c(F)cc(CN3CCN(c4ccc(C#N)cn4)CC3)cc2NC1=O` (stereo not drawn) [Compound 267, 6-(4-((8-fluoro-2-methyl-3-oxo-3,4-dihydro-2H-benzo[b][1,4]oxazin-6-yl)methyl)piperazin-1-yl)nicotinonitrile], in experiment [1], the Kd was at most 10 nM. The same compound had an IC50 at PARP of at most 31.6 nM. Also, the PF50 with Jurkat cell line is given as 1.0-1.9.

For `COc1cc(CN2CCN(c3ccc(C(=O)NC4CC4)cc3)CC2)cc2c1OC(C)C(=O)N2` (stereo not drawn) [Compound 163, N-Cyclopropyl-4-(4-((8-methoxy-2-methyl-3-oxo-3,4-dihydro-2H-benzo[b][1,4]oxazin-6-yl)methyl)piperazin-1-yl)benzamide], the Kd in experiment [1] was below 31.6 nM. On PARP, this compound had an IC50 of at most 31.6 nM. Further, the PF50 entry with Jurkat cell line is listed as “≧10.0”.

Regarding `CC1Oc2ccc(CN3CCN(c4ccc(C(=O)NCC5CC5)cn4)CC3)cc2NC1=O` (stereo not drawn) [Compound 234, N-(Cyclopropylmethyl)-6-(4-((2-methyl-3-oxo-3,4-dihydro-2H-benzo[b][1,4]oxazin-6-yl)methyl)piperazin-1-yl)nicotinamide], in experiment [1], the Kd is at most 10 nM. The compound also gave an IC50 on PARP of 39.8 to 100 nM. Further, the PF50 with Jurkat cell line is given as 1.0-1.9.

As to `CCOC(=O)c1ccc(N2CCN(Cc3ccc4c(c3)NC(=O)C(C)O4)CC2)nc1` (stereo not drawn) [Compound 237, Ethyl 6-(4-((2-methyl-3-oxo-3,4-dihydro-2H-benzo[b][1,4]oxazin-6-yl)methyl)piperazin-1-yl)nicotinate], the Kd in experiment [1] was at most 10 nM. This compound also showed an IC50 at PARP of at least 126 nM. Moreover, in the experiment with Jurkat cell line, the PF50 entry is given as “≦0.9”.

`CCC1Oc2ccc(CN3CCN(c4ccccc4O)CC3)cc2NC1=O` (stereo not drawn) [Compound 197, 2-Ethyl-6-((4-(2-hydroxyphenyl)piperazin-1-yl)methyl)-2H-benzo[b][1,4]oxazin-3(4H)-one]: the Kd in experiment [1] was at most 10 nM. On PARP, the IC50 was at least 126 nM. Further, in the experiment with Jurkat cell line, the PF50 was 1.0-1.9.

Consider `CC1Oc2c(F)cc(CN3CCN(c4ccc(C(=O)NC5CC5)cc4)CC3)cc2NC1=O` (stereo not drawn) [Compound 273, N-Cyclopropyl-4-(4-((8-fluoro-2-methyl-3-oxo-3,4-dihydro-2H-benzo[b][1,4]oxazin-6-yl)methyl)piperazin-1-yl)benzamide], for which the Kd in experiment [1] was below 31.6 nM. In addition, at PARP, the IC50 was at most 31.6 nM. Also, in the experiment on Jurkat cell line, the PF50 entry is listed as “≦0.9”.
